Experimental data: the NIST ThermoML archive (doi:10.1016/j.fluid.2014.04.015)
± gives the expanded uncertainty stated by the source.

Conditions: Liquid, Closed cell (Static) method

| SMILES | vapor or sublimation pressure (283.15 K) | vapor or sublimation pressure (293.15 K) | vapor or sublimation pressure (303.15 K) | vapor or sublimation pressure (313.15 K) | vapor or sublimation pressure (323.15 K) |
| --- | --- | --- | --- | --- | --- |
| CC(F)F [1,1-difluoroethane] | 374.8 ± 7 kPa | 515.2 ± 7 kPa | 692 ± 7.1 kPa | 911.1 ± 7.1 kPa | 1179.4 ± 7.2 kPa |
| C=C(F)C(F)(F)F [2,3,3,3-tetrafluoro-1-propene] | 436.5 ± 7.1 kPa | 591 ± 7.2 kPa | 780.5 ± 7.4 kPa | 1015.6 ± 7.6 kPa | 1300.7 ± 7.9 kPa |
